Assay results reported in US11142543B2 (priority 2016, dated 2021).
Marks after values point to notes of the source that are not given here.

What was measured:
ICR mice [1] = assay: Forced swimming test (FST), Example 38; assay type: in vivo; conditions: gavage 10 mg/Kg for 6 days, t-test
Description: Forced swimming test (FST) to investigate the antidepressant activity of some compounds and some natural products of the present invention
(§1) Male ICR mice (body weight, 20±2 g) used in the experiment were purchased from the Experimental Animal Center of Shanghai Institute of Materia Medica, Chinese Academy of Sciences. They were free access to water and kept at room temperature (23 2) ° C. in natural light. All mice were randomly divided into a blank control group and a test group, with 10 mice in each group and 5 mice/cage. The experiment was started after 3 days of adaptation in the breeding environment. The mice were fasted for 12 hours before the experiment but free access to water. The specific administration method was gavage administration, and the administration dose of the administration group was 10 mg/Kg, and the blank control group was given an equal volume of 0.5% CMC-Na.
Specific procedures: The mice were continuously administered for 6 days, and tested 1 hour after the last administration. Firstly, the spontaneous activity of the mice was measured by the open field method, that is, the mice were individually placed in a cylindrical glass jar for 4 minutes, and the number of lifting arms within the last two minutes was recorded. The mice were then individually placed in a cylindrical glass jar (20 cm high and 14 cm in diameter) with a water depth of 10 cm and a water temperature of 23° C. to 25° C. After mice entered into water, a 6-minute timing was conducted, the cumulative immobility time (the criteria for determining immobility: the mice stopped struggling in the water, or floated with only small limb movements to keep the head float on the water) within the last four minutes was recorded. Each group of mice was operated in parallel.
(§2) Experimental data processing: The experimental results were expressed as mean standard error (x SD). Statistical analysis was performed using t-test to determine whether it was significant. […] Then, the t-test was performed on the experimental index of forced swimming to determine whether it had antidepressant effect.

ICR mice [2] = assay: Tail suspension test (TST), Example 39; assay type: in vivo; conditions: gavage 10 mg/Kg for 6 days, t-test
Description: Tail Suspension Test (TST) to Investigate the Antidepressant Activity of Some Compounds and Some Natural Products of the Present Invention
as §1, with “dose” for “dose of the administration group”
Specific procedures: The mice were continuously administered for 6 days, and tested 1 hour after the last administration. Firstly, the spontaneous activity of the mice was measured by the open field method, that is, the mice were individually placed in a cylindrical glass jar for 4 minutes, and the number of lifting arms within the last 2 minutes was recorded. Then the tail of the mice was stick onto the horizontal bar by the tape at 2 cm from the tip of the tail, and the animal eyesight was separated by the surrounding plates. The horizontal bar was about 25 cm from the ground, so that the mouse was about 10 cm from the ground, and the timing was 6 min. The cumulative immobility time within the last 4 minutes was recorded. Each group of mice was operated in parallel.
as §2, with “tail suspension test” for “forced swimming”

ICR mice [3] = assay: Toxicity observed during antidepressant efficacy screening (FST and TST animal batch); assay type: in vivo; conditions: same animal batch as efficacy screening, gavage 10 mg/Kg
Description: as §1
as §1, with “The specific administration method was gavage administration, and the administration dose of the administration group was 10 mg/Kg, and the blank control group was given an equal volume of 0.5% CMC-Na.” left out

rats [4] = assay: Forced swimming test in rat model, compound C-11 versus fluoxetine, Example 41; assay type: in vivo; conditions: vs vehicle group, FIG. 3
Experimental: The rats were placed in a cylindrical jar 24 hours before administration to accommodate the underwater environment for 15 min. On the day of the behavioral test, animals were administered twice and administered orally 4 h and 1 h before the behavioral test. The rats were individually placed in a cylindrical glass jar, timed for 6 minutes, and the number of arm lift was recorded within the last 2 minutes. The rats were then placed in a cylindrical glass jar having 30 cm high and 20 cm in diameter. […] Water temperature was 23° C.-25° C.

rats [5] = assay: Tail suspension test in rat model, compound C-11 versus fluoxetine, Example 41; assay type: in vivo; conditions: vs vehicle group, FIG. 4
Experimental: On the day of the behavioral test, animals were dosed twice and administered orally 4 h and 1 h before the behavioral test. During the experiment, the tail of the rat was hung on a tail suspension test stand about 15 cm away from the ground with a tape or a clip at about 1 cm away from the tail end. […] The experimental time for each group was 6 minutes.

[6] = test system: C57 mice susceptible to social defeat by CD-1 aggressive mice; assay: Social defeated stress (SDS) model, Example 42; assay type: in vivo; conditions: C-11 10 mg/kg gavage every day, fluoxetine 10 mg/kg intraperitoneally every day, 3 weeks
Experimental: Male CD-1 aged 4-6 months mice which had passed childbearing age were raised separately, allowed to eat freely and adapt to the environment for about one week. Male C57 mice (aged 8-20 weeks differently) were used to screen for aggressive CD-1 mice. The mice screened by C57 were placed directly in the cage of CD-1 for 3 minutes, and the latency period for CD-1 to start showing offensive was recorded, and then the mice screened by C57 were moved out. For each CD-1 mouse, the same C57 was used to screen it three times a day, and different C57-selected mice were selected every day for a total of three days of screening. […] After screening for CD-1 aggressive mice for modeling, each C57 test mouse was exposed to different CD-1 aggressive mice for 10 consecutive days, 10 minutes each day. […] After 10 minutes of contact, the test mice were isolated from the invaders. Test mice and aggressive mice were placed in adjacent sections of the same squirrel cage, separated by a porous transparent plastic baffle, allowing test mice to be exposed under a threatening chronic stress stimulation for the next 24 hours. The control mice were placed in cages having the same structure, but the other side of the baffle was placed with other mice of the same line that were replaced daily. After 24 hours after the end of the last day of the experiment, we evaluated CSDS-induced social behavioral changes and selected all susceptible mice based on previous reports. The social interaction ratio (SI ratio) was calculated according to the following formula: SI ratio=time for the mouse in the interaction area when the aggressor exists/time for the mouse in the interaction area when the aggressor is absent. […] All selected test mice and control mice were then housed individually for 3 weeks. […] The mice in the vehicle group were administered by gavage with 0.5% CMC-Na every day. The SI ratio was assessed once a week.
Two-way ANOVA was used to analyze and LSD method was used for the multiple comparisons of calibration results. The data were expressed in Mean sem. […]

[7] = test system: ICR mice with ethanol-induced memory reproduction disorder
Experimental: Learning memory is an advanced function of the human and animal brains.
Before the retesting after training, the ethanol solution was administered to the mouse to block the memory reproduction process of the animal, resulting in memory reproduction disorder.
Male ICR mice, 16-18 g, were purchased from Shanghai Sippr-BK laboratory animal Co. Ltd.
40 male mice were randomly divided into 4 groups by Excel, and each group contained 10 animals. The mice in group 1 (blank group) and mice in group 2 (model group) were orally administered (i.g.) with drinking water daily.
After 3 weeks of administration, 1 hour after the last administration, the exercise was performed once in the dark avoidance method. The mice were placed in a dark avoidance box, and placed in the bright room with the back facing the hole. At the same time, the video analysis device was activated, and the animal passed through the hole into the dark room and received an electric shock, and the timing was automatically stopped. The mice were removed and the screen analysis would record the time required for each mouse to experience an electric shock from the bright room to the dark room, which was the latency period. After 24 h, the test was carried out, and 45% ethanol solution (0.1 ml/10 g) was orally administered 30 min before the test. The video analysis system would automatically record all relevant data of the animal. Data were expressed as mean standard deviation (x±s), and data difference statistics were analyzed by one-way variance (ANOVA) or X^2 test. The difference between groups was judged by P<0.05.

in vivo = conditions: male, SD, rat
Experimental: The healthy male SD rats (about 270 g) were fasted for 10 h before administration, and were free to drink water. […] The time points of blood collection from the eye socket were 30 min, 1 h, 2 h, 4 h, 6 h, 8 h, 10 h, 24 h, 48 h after the administration (n=5). […] The time points of blood collection from the eye socket were 5 min, 10 min, 30 min, 1 h, 2 h, 4 h, 8 h (n=4). The plasma was placed in a heparin-coated centrifuge tube, centrifuged for 10 min (8000 r), and the supernatant was taken and stored in a −80° C. refrigerator. After acetonitrile precipitation treatment, it was detected by HPLC-QQQ. The pharmacokinetic parameters, PK parameters of each mouse were calculated by a non-compartmental model of WinNonlin (Pharsight 6.2, NC, USA). All parameters were represented with Mean S.D. Bioavailability (F)=(AUCOral/DoseOral)/(AUCtail vein/Dosetail vein)

[8] = i.g. once a day for three consecutive weeks, donepezil 1.6 mg/kg, C-49 15 mg/kg, n = 10

## C[C@H]1CC[C@@]2(OC1)O[C@H]1C[C@H]3[C@@H]4CC[C@@H]5C[C@H](NC(=O)Nc6ccccc6)CC[C@]5(C)[C@H]4CC[C@]3(C)[C@H]1[C@@H]2C [compound C-13]
ICR mice [1]
  effect on immobility time of mice in forced swimming test compared with the blank group (in words): significantly reduce the immobility time

## C[C@H]1CC[C@@]2(OC1)O[C@H]1C[C@H]3[C@@H]4CC[C@@H]5C[C@@H](NC(=O)NC6CCCCC6)CC[C@]5(C)[C@H]4CC[C@]3(C)[C@H]1[C@@H]2C [compound C-12]
ICR mice [1]
  effect on immobility time of mice in forced swimming test compared with the blank group (in words): significant antidepressant activity
ICR mice [2]
  effect on immobility time of mouse in tail suspension test compared with the blank group (in words): significant antidepressant activity
ICR mice [3]
  toxicity observed: No significant toxicity was observed

## C[C@H]1CC[C@@]2(OC1)O[C@H]1C[C@H]3[C@@H]4CC[C@@H]5C[C@H](NC(=O)N(CCO)C6CCCCC6)CC[C@]5(C)[C@H]4CC[C@]3(C)[C@H]1[C@@H]2C [compound C-35]
ICR mice [2]
  effect on immobility time of mouse in tail suspension test compared with the blank group (in words): significantly reduce the immobility time

## C[C@H]1CC[C@@]2(OC1)O[C@H]1C[C@H]3C4CC[C@@H]5C[C@@H](O[C@@H]6OC(CO)[C@H](O)[C@H](O)C6O)CC[C@]5(C)C4CC[C@]3(C)C1[C@@H]2C (stereo partly drawn) [timosaponin A1, reference compound]
ICR mice [1]
  effect on immobility time of mice in forced swimming test compared with the blank group (in words): could not significantly reduce the immobility time
ICR mice [2]
  effect on immobility time of mouse in tail suspension test compared with the blank group (in words): could not significantly reduce the immobility time

## CNCCC(Oc1ccc(C(F)(F)F)cc1)c1ccccc1 (stereo not drawn) [fluoxetine]
Rats [4]; dose 1.73 mg/kg oral
  effect on immobility time of rats in forced swimming test: had no effect
  effect on wall climbing behavior of rats in forced swimming test: had no effect
Rats [4]; dose 3.46 mg/kg oral
  effect on immobility time of rats in forced swimming test: had no effect
  effect on wall climbing behavior / wall climbing time of rats in forced swimming test: had no effect
Rats [4]; dose 6.92 mg/kg oral
  effect on immobility time of rats in forced swimming test: significantly affect
  effect on wall climbing behavior of rats in forced swimming test: significantly affect
Rats [5]; dose 1.73 mg/kg oral
  effect on cumulative immobility time of rats in tail suspension test: had no effect
Rats [5]; dose 3.46 mg/kg oral
  effect on cumulative immobility time of rats in tail suspension test: had no effect
Rats [5]; dose 6.92 mg/kg oral
  effect on cumulative immobility time of rats in tail suspension test: significantly affect the cumulative immobility time
[6]; FIG. 5A
  mouse social time: did not work during the third week of administration
[6]; FIG. 5B
  social proportion of mice (SI ratio): not effective after three weeks of administration

## C[C@H]1CC[C@@]2(OC1)O[C@H]1C[C@H]3[C@@H]4CC[C@@H]5C[C@H](NC(=O)N(CCNC(=O)CN(C)C)C6CCCCC6)CC[C@]5(C)[C@H]4CC[C@]3(C)[C@H]1[C@@H]2C [compound C-49]
ICR mice [1]
  effect on immobility time of mice in forced swimming test compared with the blank group (in words): significantly reduced the time immobility
ICR mice [2]
  effect on immobility time of mouse in tail suspension test compared with the blank group (in words): significantly reduce the immobility time
[7]; 15 mg/kg, three weeks, mice with memory reproduction disorder induced by ethanol
  improvement effect on learning and memory (in words): significant improvement effect
[7]; [8]
  Number of shocked animals: 3*
  Total number of errors (within 5 min): 3**
[7]; i.g. once a day for three consecutive weeks, donepezil 1.6 mg/kg, C-49 15 mg/kg, x ± s, n = 10
  Latency period from an open room to a dark room: 215.8 ± 135.8 s
In vivo
  bioavailability: 11.1%
In vivo; iv, 1 mg/kg
  AUC: 293 ng·h/mL
  Cmax: 285 ng/mL
  Tmax: 0.1 h
In vivo; po, 100 mg/kg
  AUC: 3120 ng·h/mL
  Cmax: 251 ng/mL
  Tmax: 2.8 ± 1.1 h
In vivo; po, 100 mg/kg, MRT
  MRT: 13.6 h
In vivo; po, 100 mg/kg, T1/2
  half-life: 9.7 h

## COC(=O)C1(NC(=O)N[C@@H]2CC[C@@]3(C)[C@H](CC[C@@H]4[C@@H]3CC[C@]3(C)[C@@H]5[C@H](C[C@@H]43)O[C@]3(CC[C@H](C)CO3)[C@H]5C)C2)CCCCC1 [compound C-19]
ICR mice [2]
  effect on immobility time of mouse in tail suspension test compared with the blank group (in words): certain antidepressant activity

## C[C@H]1CC[C@@]2(OC1)O[C@H]1C[C@H]3[C@@H]4CC[C@@H]5C[C@H](NC(=O)NC6CCC(O)CC6)CC[C@]5(C)[C@H]4CC[C@]3(C)[C@H]1[C@@H]2C (stereo partly drawn) [compound C-5]
ICR mice [2]
  effect on immobility time of mouse in tail suspension test compared with the blank group (in words): certain antidepressant activity

## C[C@H]1CC[C@@]2(OC1)O[C@H]1C[C@H]3[C@@H]4CC[C@@H]5C[C@H](NC(=O)NN6CCOCC6)CC[C@]5(C)[C@H]4CC[C@]3(C)[C@H]1[C@@H]2C [compound C-7]
ICR mice [2]
  effect on immobility time of mouse in tail suspension test compared with the blank group (in words): certain antidepressant activity

## C[C@H]1CC[C@@]2(OC1)O[C@H]1C[C@H]3[C@@H]4CC[C@@H]5C[C@@H](O)CC[C@]5(C)[C@H]4CC[C@]3(C)[C@H]1[C@@H]2C [sarsasapogenin, reference compound]
ICR mice [1]
  effect on immobility time of mice in forced swimming test compared with the blank group (in words): could not significantly reduce the immobility time
ICR mice [2]
  effect on immobility time of mouse in tail suspension test compared with the blank group (in words): could not significantly reduce the immobility time

## C[C@H](CO)CC[C@H]1O[C@H]2C[C@H]3[C@@H]4CC[C@@H]5C[C@H](NC(=O)NC6CCCCC6)CC[C@]5(C)[C@H]4CC[C@]3(C)[C@H]2[C@@H]1C [compound C-23]
ICR mice [1]
  effect on immobility time of mice in forced swimming test compared with the blank group (in words): certain antidepressant activity
